Measured values from patent publication EP2450046B1, “A MEDICINAL COMPOSITION FOR THE TREATMENT OF BRONCHITIS AND PREPARATION THEREOF” (Hebei Yiling Medicine Research Institute Co., Ltd., priority 2009, dated 2011).
Where a name gives a salt, the structure may show the parent alone.

What was measured:
[1] = tested on: panting in the guinea pig induced by histamine plus acetylcholine; assay: Dyspnea-relieving effect on panting in the guinea pig induced by histamine plus acetylcholine; format: in vivo, guinea pigs; conditions: Aminophylline 0.05 g/kg i.g. q.d. 3 days, n=10
Description: Sixty white purebred guinea pigs of Grade I evenly composed of males and females with the mean body weight of 198.55 ± 6.30g, provided by Beijing Keyu Animal Breeding Center, License number: SCXK (Jing) 2002-0005.
The healthy guinea pigs evenly composed of males and females were screened preciously. The guinea pigs were individually placed into the 4 L bell-shape glass container and sprayed with a mixed liquid of 2 % acetylcholine chloride and 0.1 % histamine phosphate in equal volumes at a pressure of 400 mmHg for 20s. […] The guinea pig showing the incubation period for asthmatic convulsion above 120s would not be chosen. […] The animals in the test groups were intragastrically administered q.d. at a volume of 5 ml/kg for consecutive three days, while the animals in the control group were administered with equal amount of physiological saline. An asthma-inducing experiment was performed in 30 min post the final administration. The guinea pigs were individually placed into the 4 L bell-shape glass container and sprayed with a mixed liquid of 2 % acetylcholine chloride plus 0.1 % histamine phosphate in equal volumes at a pressure of 400 mmHg for 20s. […] The incubation period lasting for more than 6 min was counted as 360 s. The experimental results were compared among the groups by t-test.

[2] = tested on: aqueous ammonia-induced cough in mice; assay: Cough-checking effect on the aqueous ammonia-induced cough in mice; format: in vivo, Kunming mice; conditions: CHT 12mg/kg i.g. q.d. 3 days; n=10
Experimental: • (1) The present medication to be tested, 6.25g crude drugs/g (i.e.,1g of the medication was made from 6.25g crude drugs), provided by Shijiazhuang Yiling Pharmaceutical Co. Ltd., lot number: 060501, and diluted to required concentrations with distilled water in the experiment. • (2) Cloperastine Hydrochloride Tablet (CHT) as the positive control of a western medicine, 10mg/tablet, produced by Beijing Shuguang Pharmaceutical Co., Ltd. lot number: 060619, and valid until June, 2008. • (3) Gui Long Ke Chuan Ning Capsule (GLKCNC) as the positive control of a traditional Chinese medicine, 1g crude drugs/pill (0.3g of powder per pill), produced by Shanxi Guilong pharmaceutical Co., Ltd., Approval number: SFDA Approval No. Z-11; Lot number of the product: 060112; valid until December 2007.
Sixty Kunming mice of Grade II evenly composed of males and females with the mean body weight of 19.90 ± 0.66 g, provided by Institute of Laboratory Animal Science, Chinese Academy of Medical Sciences, License number: SCXK (Jing) 2000-0006. […]

[3] = tested on: citric acid-induced cough; assay: Cough-checking effect on citric acid-induced cough in guinea pigs; format: in vivo; conditions: CHT 7mg/kg i.g. q.d. 3 days; n=10
Experimental: • (1) The present medication to be tested, 6.25g crude drugs/g, provided by Shijiazhuang Yiling Pharmaceutical Co. Ltd., lot number: 060501. • (2) GLKCNC as the traditional Chinese medicine control, 1g crude drugs/pill (0.3g of powder per pill), produced by Shanxi Guilong pharmaceutical Co., Ltd., Approval number: SFDA Approval No. Z-11; Lot number of the product: 060112; valid until December 2007. • (3) CHT as the Western medicine control, 10 mg/tablet, produced by Beijing Shuguang Pharmaceutical Co., Ltd., production date: 200606; lot number: 060619; valid until June, 2008.
Sixty purebred guinea pigs of Grade I evenly composed of males and females with the mean body weight of 206.65 ± 6.92g, provided by Beijing Keyu Animal Breeding Center, License number: SCXK (Jing) 2002-0005.
The guinea pigs were individually placed into the sealed 4L bell-shape container with prior to the experiment and a solution of 17.5% citric acid was sprayed for 1 minute at a pressure of 400 mmHg through the glass sparger. The guinea pigs were screened according to the cough number recorded within 5 minutes Guinea pigs with a cough number of less than 10 were rejected and the qualified ones were chosen for the experiment. […]

sputum volume in rats = assay: Effect on sputum volume in rats measured by capillary; format: in vivo
Experimental: (§1) • (1) The present medication to be tested, 6.25 g of crude drug/g, provided by Shijiazhuang Yiling Pharmaceutical Co. Ltd., lot number: 060501. • (2) GLKCNC as the traditional Chinese medicine control, 1g crude drugs/pill (0.3g of powder per pill), produced by Shanxi Guilong pharmaceutical Co., Ltd., Approval number: SFDA Approval No. Z-11; Lot number of the product: 060112; valid until December 2007. • (3) Mucosolvan as a western medicine control, 30mg/tablet, the product of Boehringer Ingelheim Int. Ltd. German, lot number: 206362, distribution lot number:030307.
Sixty SPF Wistar […] evenly composed of males and females with the mean body weight of 174.38 ± 7.64 g, provided by Institute of Laboratory Animal Science, Chinese Acadamy of Medical Sciences, and License number: SCXK (Jing) 2000-0006.
The sixty healthy rats were randomly assigned into the following six groups: (1) the blank control group administered with distilled water (10 ml/kg); (2) the Mucosolvan group (11 mg /kg); (3) the GLKCNC group (1.5 g crude drug/kg); (4) the low dosage group of the present medication (L-dosage group, 2 g crude drug/kg); (5) the medium dosage group of the present medication (M-dosage group, 4 g crude drug/kg); (6)the high dosage group of the present medication (H-dosage group, 8 g crude drug/kg). […] The skin of neck was incised and the trachea was separated, on which an orifice was pricked with a syringe needle at the median site of the lower edge of the thyroid cartilage between the two cartilages. A piece of glass capillary with the length of 5 cm and the inner diameter of 0.8 mm was inserted through the orifice in a way such that the glass capillary was just contact the inner wall of the trachea. When the glass capillary was filled up with sputum, it would be replaced immediately with another one. The sputum volume in capillaries was determined in 1 hour prior to the administration. One hour later, the animals in the experimental group were administered duodenally with the medications at a volume of 10 ml/kg, while the animals in the control group were administered with equal amount of physiological saline. […] Comparisons among the groups were performed by t-test with the average amount of the secretion in 1 hour prior to administration serving as a normal value.

sputum volume in mice = assay: Effect on sputum volume in mice measured by phenol red; format: in vivo, ICR mice; conditions: Mucosolvan 16mg/kg i.g. q.d. 3 days; n=10
Experimental: as §1, with “6.25 g crude drugs/g,” for “6.25 g of crude drug/g,”, “g crude drugs/g, provided by” for “of crude drug/g, provided by”, “lot number:030307. […]” for “lot number:030307.”
Sixty healthy mice were randomly assigned into the following six groups: (1) the blank control group administered with distilled water (25 ml/kg); (2) the Mucosolvan group (16 mg/kg); (3) the GLKCNC group (2 g crude drugs/kg); (4) the low dosage group of the present medication (L-dosage group, 3 g crude drugs/kg); (5) the medium dosage group of the present medication (M-dosage group, 6 g crude drugs/kg); (6)the high dosage group of the present medication (H-dosage group, 12 g crude drugs/kg). […] The optical density (OD) value of the flush liquid was measured by a UV-visible spectrophotometer UV-120-02 at a wavelength of 546nm, in which the level of phenol red in the flush liquid (µg/ml) was calculated on the basis of phenol red standard curve. […]

[4] = Mucosolvan 11mg/kg duodenal, n=10
[5] = Mucosolvan 11mg/kg duodenal, vs 1 h prior to administration

With `Cn1c(=O)c2[nH]cnc2n(C)c1=O` [Aminophylline] the Falling-down time [1] was 358.5 ± 3.4 s and the Incubation period ([1]; more than 6 min counted as 360 s) was 228.0 ± 43.3 s.

Work on `Clc1ccc(C(OCCN2CCCCC2)c2ccccc2)cc1` (centres unmarked) [CHT, Cloperastine Hydrochloride] yielded a Cough number [2] of 28.40±9.75 times /3 min, an Incubation period [2] of 118.30 ± 27.23 s and a Cough number [3] of 6.10±3.57 times/5min. For the same compound, the Incubation period [3] was 196.80 ± 66.22 s.

In the case of `Cl.Nc1c(Br)cc(Br)cc1CNC1CCC(O)CC1` (centres unmarked) [Mucosolvan], the “Excretion value, 1 h post administration” value (sputum volume in rats; [4]) is reported as 8.76±2.51 cm, the “Excretion value, 2 h post administration” value (sputum volume in rats; [4]) is reported as 8.50±1.79 cm and the “Excretion value, Change rate, 1 h post administration” value (sputum volume in rats; [5]) is reported as 238.05±77.76%. The “Excretion value, Change rate, 2 h post administration” value (sputum volume in rats; [5]) was 67.48±11.94%, the “Excretion value, Difference, 1 h post administration” value (sputum volume in rats; [5]) was 6.01±1.56 cm and the “Excretion value, Difference, 2 h post administration” value (sputum volume in rats; [5]) was 5.75±1.64 cm. The “Excretion value, 1 h prior to administration” value (sputum volume in rats; Mucosolvan group 11mg/kg, baseline before dosing, n=10) was 2.75±1.08 cm and the “Amount of excreted phenol red” value (sputum volume in mice) was 1.538 ± 0.486 µg/mL.
